The results in this text go back to patent US9776972B2, “Pyrazole derivatives as arginine methyltransferase inhibitors and uses thereof” (priority 2013, dated 2017).

A value given as a limit tells only on which side of the number the result lay.

One experiment has as its system mono-methyl arginine in RKO cells. Description: RKO Methylation Assay, In Cell Western (ICW) for mono-methyl arginine and DNA content. Conditions: Homo sapiens, RKO, 72 h, RKO cells, 72 hours, mono-methyl arginine, percent activation; single experiment or average of multiple experiments; read-out: EC30 (In Cell Western data, Numerical). The class given is cell-based. The method in brief: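 After fixation, mono-methyl arginine and DNA (DRAQ5) were measured by infrared In-Cell Western imaging at 700/800 nm in RKO cells exposed to compounds for 72 hours. Percent activation used DMSO wells as minimum and 20 μM reference compound as maximum; EC30 curves fitted on triplicate wells.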
For orientation: EC30 means the concentration needed for an effect of 30%. On to `Cc1ccc(-c2n[nH]cc2CN(C)CCN)c(C)c1` [Compound 88], for which the 30% effect concentration (EC30) was found to be 14.5 µM.

For the compound `CN(CCN)Cc1c[nH]nc1-c1ccc(F)cc1` [Compound 1], the EC30 worked out at 7.4 µM.

With `CN(CCN)Cc1c[nH]nc1-c1ccc(C(C)(C)C)cc1` [Compound 74], the concentration for an effect of 30% (EC30) was 6.34 µM.

As to `CN(CCN)Cc1c[nH]nc1-c1cccc(F)c1` [Compound 71], the EC30 is 3.72 µM.

As for `Cc1ccc(-c2n[nH]cc2CN(C)CCN)c(Cl)c1` [Compound 90], the concentration for an effect of 30% (EC30) came out at 10.4 µM.

Consider `CN(CCN)Cc1c[nH]nc1-c1ccc(Cl)cc1` [Compound 95], for which the EC30 was 1.23 µM.

For `CN(CCN)Cc1c[nH]nc1-c1ccc(Cl)cc1Cl` [Compound 86], the EC30 stood at 5.63 µM.

Consider `CN(CCN)Cc1c[nH]nc1-c1ccc(OC(F)(F)F)cc1` [Compound 93], for which the EC30 was 1.11 µM.

Consider `CC(C)Oc1ccc(-c2n[nH]cc2CN(C)CCN)cc1Cl` [Compound 168], for which the EC30 came to 0.066 µM.

For the compound `NCCN(Cc1c[nH]nc1-c1ccc(F)cc1)C1CC1` [Compound 78], the EC30 came to 10.6 µM.

In the case of `CN(CCN)Cc1c[nH]nc1-c1ccccc1` [Compound 73], the EC30 is 14.7 µM.

As to `CN(CCN)Cc1c[nH]nc1-c1cccc(C#N)c1` [Compound 70], the EC30 was over 20 µM.

On to `CN(CCN)Cc1cn(C)nc1-c1ccc(F)cc1` [Compound 3], for which the EC30 worked out at 16.2 µM.

Regarding `COc1ccc(-c2n[nH]cc2CN(C)CCN)c(OC)c1` [Compound 87], the EC30 was over 20 µM.

Take `CN(CCN)Cc1c[nH]nc1-c1ccc(C(F)(F)F)cc1` [Compound 92]: the 30% effect concentration (EC30) was determined as 0.956 µM.

For the compound `CC(C)Oc1ccc(-c2n[nH]cc2CN(C)CCN)cc1` [Compound 67], the EC30 was 0.507 µM.

As for `CN(CCN)Cc1cnn(C2COC2)c1-c1ccc(F)cc1` [Compound 81], the EC30 is over 20 µM.

On to `CC(C)N(CCN)Cc1c[nH]nc1-c1ccc(F)cc1` [Compound 75], for which the concentration for an effect of 30% (EC30) is over 20 µM.

For `CN(CCN)Cc1n[nH]cc1-c1ccc(F)cc1` [Compound 69], the EC30 was 7.99 µM.

As to `COCCn1cc(CN(C)CCN)c(-c2ccc(F)cc2)n1` [Compound 5], the EC30 was over 20 µM.

As to `CN(CCN)Cc1nn(C)cc1-c1ccc(C#N)cc1` [Compound 83], the EC30 stood at 6.75 µM.

For the compound `Cc1ccc(Cl)c(-c2n[nH]cc2CN(C)CCN)c1` [Compound 91], the EC30 is over 20 µM.

Turning to `CN(CCN)Cc1c[nH]nc1-c1ccc(F)cc1Cl` [Compound 89], the EC30 is 11 µM.

For the compound `CN(CCN)Cc1c[nH]nc1-c1ccc(N2CCNCC2)cc1` [Compound 82], the EC30 was over 20 µM.

On to `CN(CCN)Cc1c[nH]nc1-c1ccc(OC(F)F)cc1` [Compound 94], for which the EC30 worked out at 1.78 µM.

The same experiment, now with this note: Homo sapiens, RKO, 72 h, read-out: EC30 (In Cell Western data, Numerical, μM).
For the compound `CN(CCN)Cc1cn(C2COC2)nc1-c1ccc(F)cc1` [Compound 77], the EC30 worked out at 12.5 µM.

Turning to `CN(CCN)Cc1cnn(C)c1-c1ccc(F)cc1` [Compound 4], the EC30 came to 12.1 µM.

For the compound `CN(CCN)Cc1c[nH]nc1-c1ccc(C(F)(F)F)cc1C(F)(F)F` [Compound 85], the EC30 was over 20 µM.

Staying with this experiment, now noted: RKO cells, 72 hours, mono-methyl arginine, percent activation; class symbols.
Take `CNCCN(C)Cc1c[nH]nc1-c1ccccc1O` [Compound 35]: the “EC30 (In Cell Western data)” value is reported as “C (“C” indicates an EC30 ≧ 12.01 μM)”.

Consider `CNCCN(C)Cc1c[nH]nc1-c1cccc(NC(C)=O)c1` [Compound 42], for which the “EC30 (In Cell Western data)” value is on record as “C (“C” indicates an EC30 ≧ 12.01 μM)”.

Regarding `CNCCN(C)Cc1c[nH]nc1-c1ccc(CC#N)cc1` [Compound 34], the “EC30 (In Cell Western data)” value was “C (“C” indicates an EC30 ≧ 12.01 μM)”.

Turning to `CNCCN(C)Cc1c[nH]nc1-c1cccc(N)c1` [Compound 32], the “EC30 (In Cell Western data)” value is “C (“C” indicates an EC30 ≧ 12.01 μM)”.

`CNCCN(C)Cc1c[nH]nc1-c1ccccc1NS(C)(=O)=O` [Compound 41]: the “EC30 (In Cell Western data)” value is “C (“C” indicates an EC30 ≧ 12.01 μM)”.

For the compound `CNCCN(C)Cc1c[nH]nc1-c1ccc(-c2ccccc2)cc1` [Compound 47], the “EC30 (In Cell Western data)” value was “A (“A” indicates an EC30 ≦ 3.00 μM)”.

Turning to `CNCCN(C)Cc1c[nH]nc1-c1cccc(C(C)=O)c1` [Compound 44], the “EC30 (In Cell Western data)” value was “C (“C” indicates an EC30 ≧ 12.01 μM)”.

Staying with this experiment, now noted: RKO cells, 72 hours, mono-methyl arginine, percent activation; single experiment or average of multiple experiments.
`CNCCN(C)Cc1c[nH]nc1-c1ccc(-c2ccccc2)cc1` [Compound 47]: the “EC30 (In Cell Western data, Numerical, μM)” value was 0.104 µM.
